Key:
[1] = target: T1, GST-CD45 cytoplasmic domain (Homo sapiens, UniProt P08575); experiment: in vitro phosphatase assay, CD45; type: biochemical; details: read-out: IC50 PTPRC (CD45)
T1 construct: GST-CD45 cytoplasmic domain; purchased Biomol International, L.P. (Plymouth Meeting, Pa.)
T1 sequence (P08575 599-1306 limits assumed): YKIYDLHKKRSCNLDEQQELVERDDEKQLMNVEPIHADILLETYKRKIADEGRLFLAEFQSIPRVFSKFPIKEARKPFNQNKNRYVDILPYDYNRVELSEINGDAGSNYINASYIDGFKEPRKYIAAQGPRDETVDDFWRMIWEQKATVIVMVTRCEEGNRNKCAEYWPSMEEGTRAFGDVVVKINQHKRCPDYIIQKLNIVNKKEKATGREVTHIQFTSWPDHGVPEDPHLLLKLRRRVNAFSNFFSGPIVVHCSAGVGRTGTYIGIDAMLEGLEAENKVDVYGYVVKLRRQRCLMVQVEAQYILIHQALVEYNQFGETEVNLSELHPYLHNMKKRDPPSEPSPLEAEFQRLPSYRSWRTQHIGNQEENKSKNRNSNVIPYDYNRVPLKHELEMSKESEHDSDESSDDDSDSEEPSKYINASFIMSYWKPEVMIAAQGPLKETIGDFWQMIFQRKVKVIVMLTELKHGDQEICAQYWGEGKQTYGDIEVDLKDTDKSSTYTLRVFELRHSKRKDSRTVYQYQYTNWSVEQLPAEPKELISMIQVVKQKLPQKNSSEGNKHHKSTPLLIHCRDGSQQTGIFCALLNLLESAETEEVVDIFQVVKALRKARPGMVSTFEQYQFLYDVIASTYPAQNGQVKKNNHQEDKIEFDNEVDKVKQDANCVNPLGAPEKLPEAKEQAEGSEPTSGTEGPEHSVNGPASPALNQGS
Protocol: (§1) Candidate compounds were screened using the in vitro protein tyrosine phosphatase (PTP) assay kit (Sigma, St. Lois, Mo.). […] The assay determines free phosphate generated by dephosphorylation of the PTP substrate using the Malachite Green reagent. Briefly, 0.5 μg of GST-SHP-2 PTP was incubated in 40 μL assay buffer (25 mM Tris-HCl, PH7.4, 50 mM NaCl, 5 mM DTT, and 2.5 mM EDTA) with test compounds at various concentrations or DMSO at room temperature for 30 min. The PTP substrate was then added to a final concentration of 0.2 mM. The system was incubated at 30° C. for 30 min. Finally, 50 μl of Malachite Green solution was added and OD620 was measured after 5 min. In the phosphatase assays for SHP-1, CD45, TC-PTP, PTP-MEG2 (PTPN9), and LAR (PTPRF), procedures were similar, with the exception that GST-SHP-1, GST-CD45 cytoplasmic domain, GST-TC-PTP, GST-PTP-MEG2 PTP domain, and GST-LAR PTP domain purchased from Biomol International, L.P. (Plymouth Meeting, Pa.) were used instead as the enzymes.

[2] = target: T2, GST-LAR PTP domain (PTPRF) (Homo sapiens, UniProt P10586); experiment: in vitro phosphatase assay, LAR; type: biochemical
T2 construct: GST-LAR PTP domain purchased from Biomol International; purchased Biomol International, L.P. (Plymouth Meeting, Pa.)
T2 sequence (P10586 1352-1607 limits assumed): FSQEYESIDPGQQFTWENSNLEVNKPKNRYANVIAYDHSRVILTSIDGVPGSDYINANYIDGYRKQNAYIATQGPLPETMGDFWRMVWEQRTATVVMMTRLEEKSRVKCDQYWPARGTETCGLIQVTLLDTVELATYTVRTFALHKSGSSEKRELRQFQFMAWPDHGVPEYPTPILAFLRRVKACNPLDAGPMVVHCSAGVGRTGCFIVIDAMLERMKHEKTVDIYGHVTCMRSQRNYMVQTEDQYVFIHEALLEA
Protocol: as §1

[3] = target: T3, GST-PTP-MEG2 PTP domain (PTPN9) (Homo sapiens, UniProt P43378); experiment: in vitro phosphatase assay, PTP-MEG2; type: biochemical
T3 construct: GST-PTP-MEG2 PTP domain; purchased Biomol International, L.P. (Plymouth Meeting, Pa.)
T3 sequence (P43378 303-574 limits assumed): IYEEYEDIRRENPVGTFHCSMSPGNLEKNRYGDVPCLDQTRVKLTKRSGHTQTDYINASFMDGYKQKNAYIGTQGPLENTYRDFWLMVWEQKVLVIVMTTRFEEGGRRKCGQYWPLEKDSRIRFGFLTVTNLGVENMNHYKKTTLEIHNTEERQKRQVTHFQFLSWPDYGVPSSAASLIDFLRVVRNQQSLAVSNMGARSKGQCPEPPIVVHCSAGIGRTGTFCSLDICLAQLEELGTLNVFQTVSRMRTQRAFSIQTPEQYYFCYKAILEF
Protocol: as §1

[4] = tested on: mouse embryonic fibroblasts, wildtype and SHP-2 E76K mutant; experiment: cell proliferation assay, embryonic fibroblasts wildtype and SHP-2 E76K (MTS); type: cell-based; details: 48 hours
Protocol: To test the effects of the active compounds on SHP-2-mediated cellular proliferation, Ba/F3, an IL-3 dependent hematopoietic cell line, mouse embryonic fibroblasts (MEFs), and H661 lung cancer cell line with SHP-2 activating mutation N58S were used for the assays. Cells were seeded into 96-well plates (2×10^4 cells/well) in the RPMI-1640 (for Ba/F3 cells) or DMEM (for MEFs and H661 cells) medium supplemented with 10% fetal bovine serum (FBS) and test compounds at various concentrations. For the Ba/F3 cell assay, recombinant mouse IL-3 (1 ng/mL) was included in the culture medium. Two days later, cell number was determined using the MTS cell proliferation kit (Promega Life Science, Madison, Wis.).
Mouse embryonic fibroblasts, wildtype and SHP-2 E76K mutant, were cultured in DMEM medium supplemented with active compounds at the indicated concentrations. DMSO was included at negative controls. Cell numbers were determined 48 hours later using the MTS assay. Shown are the results of a representative compound #324.

[5] = tested on: myeloid progenitors, wildtype and SHP-2 E76K; experiment: hematopoietic progenitor cell colony formation assay (CFU-GM); type: cell-based, mouse
Protocol: To determine cellular response of myeloid progenitors to IL-3, bone marrow cells (5×10^4 cells/ml) freshly harvested from C57BL6 mice were assayed for colony forming units (CFUs) in 0.9% methylcellulose IMDM medium containing 30% FBS, glutamine (10^−4 M), β-mercaptoethanol (3.3×10^−5 M), and IL-3 (10 ng/ml). After 7 days of culture at 37° C. in a humidified 5% CO2 incubator, hematopoietic cell colonies (primarily CFU-GM) were counted under an inverted microscope.
FIG. 13 illustrates A). […] Bone marrow cells were harvested from wildtype and mutant mice with SHP-2 E76K mutation. IL-3 induced myeloid progenitor cell colony (CFU-GM) formation assays were performed as described in the Examples in the presence of various concentrations of active compounds. Shown are the results of a representative compound #324. B). Inhibition of growth factor-independent colony formation of myeloid progenitors with SHP-2 activating mutation E76K by active compounds. Bone marrow cells were harvested from wildtype and mutant mice with SHP-2 E76K mutation. The cells were assayed for CFU-GM without cytokines in the presence of various concentrations of active compounds. Shown are the results of a representative compound #324.

- IC50 [1]: 182 µM
- IC50 [2]: 144 µM
- IC50 [3]: 177 µM
SMILES: Cc1cc(C)c2[nH]c3nc(SCC(=O)Nc4cccc5ccccc45)nnc3c2c1 [#324]
- sensitivity of E76K fibroblasts versus wild type fibroblasts [4]: more sensitive
- growth factor-independent colony formation of E76K myeloid progenitors ([5]; CFU-GM without cytokines): Inhibition
- sensitivity of E76K myeloid progenitors versus wild type (IL-3 induced CFU-GM) ([5]; IL-3 induced colony formation): more sensitive
